From US20140140951A1, “D-Alanine Ester of Rp-Nucleoside Analog” (priority 2012, published 2014)

Tests used:
[1] = Cytotoxicity evaluation (CellTiter-Blue cell viability); type: cell-based; details: human, Zluc cells (HCV replicon cells)
Protocol: For cytotoxicity evaluation, Zluc cells were treated with compound as described herein, and cell viability was monitored using the CellTiter-Blue Cell Viability Assay (Promega) by adding 20 μL of the assay solution to each well. The plates were then incubated at 37° C./5% CO2 for at least 3 hours. Fluorescence was detected in plates using excitation and emission wavelengths of 531 and 595 nm, respectively, in a Victor^3 V 1420 multilabel counter (Perkin Elmer) and CC50 values were determined using Microsoft Excel and XLfit 5.2 software.

[2] = Stability in liver microsomes; type: in vitro ADME, human; details: 10 μM, 1.0 mg/mL protein, NADPH, 60 min
Protocol: (§1) Stability of test compounds was determined in subcellular fractions (microsomes and S9) of human liver and intestine in duplicate for each matrix. Pooled liver and intestinal microsomal, intestinal and liver S9 proteins (1.0 mg/mL), suspended in incubation buffer (100 mM potassium phosphate, pH 7.4, 5 mM MgCl2, and 0.1 mM EDTA), were preincubated for 5 min at 37° C. with 10 μM of a test compound from a 10 mM stock solution in DMSO (final DMSO concentration was 0.1%); the reaction was initiated by the addition of NADPH (3 mM final concentration). At specific times (0 and 60 min), 0.1 mL samples were taken and the reaction terminated by the addition of 4 volumes of stop solution (acetonitrile with 500 ng/mL carbutamide as an internal standard). The samples were vortexed for 30 sec and then centrifuged at 16,000 g for 10 min. Aliquots of supernatants (100 μL each) were transferred to 96 deep-well plates preloaded with 100 μL distilled water and analyzed after mixing by LC-MS/MS. The MS peak area ratio of the test compound versus the internal standard was calculated and percent unchanged test compound over 60 minutes was calculated using this ratio.

HCV genotype 1b replicon = assay: HCV replicon assay (luciferase reporter); type: cell-based; details: Hepatitis C virus; Zluc (Huh-7-derived) cells, 72 hours
Protocol: Huh-7-derived cell line (Zluc) that harbors an HCV genotype 1b replicon and a luciferase reporter gene was grown in Dulbecco's Modified Eagle Medium (DMEM) supplemented with 10% fetal bovine serum, 2 mM GlutaMAX, 1% MEM nonessential amino acids, 100 IU/mL penicillin, 100 μg/mL streptomycin, and 0.5 mg/mL Geneticin® (G418). For dose response testing the cells were seeded in 96-well plates at 7.5×10^3 cells per well in a volume of 50 μL, and incubated at 37° C./5% CO2. Drug solutions were made up freshly in Huh-7 media as 2× stocks. […] were prepared from these stocks in DMEM without G418. At least three hours after Zluc cells were seeded, drug treatment was initiated by adding 50 μL of drug dilutions to the plates in duplicate. Final concentrations of drug ranged from 100 μM to 0.0000512 μM. Cells were then incubated at 37° C./5% CO2. […] For this, media was removed from the plates via gentle tapping. Fifty microliters of ONE-glo luciferase assay reagent was added to each well. The plates were shaken gently for 3 min at room temperature and luminescence was measured on a Victor^3 V 1420 multilabel counter (Perkin Elmer) with a 1 second read time using a 700 nm cut-off filter. The EC50 values were calculated from dose response curves from the resulting best-fit equations determined by Microsoft Excel and XLfit 5.2 software. […]

[3] = Liver pharmacokinetics (triphosphate) following a single oral dose in CD-1 mice; type: in vivo; details: single oral dose 10 mg/kg for I or 25 mg/kg for II in PEG 200, CD-1 male mice
Protocol: Liver samples were analyzed for the active species 2′-methyl-2′-fluorouridine triphosphate (2′-Me-2′-F—U TP) by LC-MS/MS. […] Internal standard solution was added to the homogenate followed by neutralization with 20% ammonium hydroxide solution and addition of 500 μL 1% formic acid. The tissue samples were extracted by weak anion exchange solid phase extraction (SPE). Post extraction, the eluates were evaporated under nitrogen, followed by reconstitution before injection onto the LC-MS/MS system. […] The calibration range was 10 to 10000 pmol/mL in mouse liver homogenate (50 to 50000 pmol/g of mouse liver).

[4] = Stability in intestinal microsomes; type: in vitro ADME, human; details: 10 μM, 1.0 mg/mL protein, NADPH, 60 min
Protocol: as §1

SMILES | CC50 at 72 h [1] [µM] | Stability (percent remaining) HLM (1 hr) [2] | EC50 (HCV genotype 1b replicon) [µM] | Ms Liver 2′-Me-2′-F-U TP AUC (pmol · hr/g at 1 μmol/kg) [3] | Stability (percent remaining) HIM (1 hr) [4]
CC(C)OC(=O)[C@@H](C)N[P@@](=O)(OC[C@H]1O[C@@H](n2ccc(=O)[nH]c2=O)[C@](C)(F)[C@@H]1O)Oc1ccccc1 [Compound (Ia), D-Alanine, N—((RP,2′R)-2′-deoxy-2′-fluoro-2′-methyl-P-phenyl-5′-uridylyl)-, 1-methylethyl ester] | > 50 | ++++ (60% < ++++ ≦ 80%) | > 10 | +++++ (1600 < +++++) | +++++ (80% < +++++)
CC(C)OC(=O)[C@@H](C)N[P@](=O)(OC[C@H]1O[C@@H](n2ccc(=O)[nH]c2=O)[C@](C)(F)[C@@H]1O)Oc1ccccc1 [Compound (Ib)] | > 50 | +++++ (80% < +++++) | > 10 | +++ (400 < +++ ≦ 1000) | +++++ (80% < +++++)
